Structures can show the parent of a compound that is named as a salt.
Assays:
H1299 = test: In vitro drug sensitivity test of cells, MTS method; format: cell-based; conditions: culture time 72 h-216 h
Description: (§1) 1640 medium (Gibco), DMEM medium (Hyclone), MEM medium (Gibco), […] medium (Gibco), DMEM/F12 medium (Gibco), L-15 medium (Hyclone), IMDM culture Base (Hyclone), non-essential amino acid (Gibco), sodium pyruvate (Gibco), insulin-transferrin-selenium additive TS-G, Shanghai Yuanpei Bio-tech), fetal bovine serum ([…]), trypsin digestion fluid (Jiangsu KGI), Cell Titer 96® AQueousOne Solution Cell Proliferation Assay (Promega), 96-well cell culture plate (Corning, Cat. No. 3599), Cisplatin (sigma, Cat. No. P4394), Olaparib (Selleck, Cat. No. S1060), Topotecan hydrochloride hydrate (Sigma, article number T2705), Paclitaxel (Dalian Meilun, article number MB1178). [table] […] Then the inventors adjusted the cell suspension concentration to 1×10^4/mL, added the cells to a 96 well plate as 100 ul per well, that is, 1000-2000 cells per well. Then the cells were incubated at 5% CO2, 37° C. overnight. The next day, after the cells at the bottom of the 96-well plate adhered, various drugs with different concentration gradients were added: […] After putting the 96-well plate into a CO2 incubator for 72 hours, the cell morphology and density in each were observed. For slow-growing cells, supplementation treatment was needed. For different cells, the culture time was between 72 h-216 h, and most of the cell culture time was between 144 h-168 h. […] Measure the absorbance (OD) of each well at 492 nm. Cell Viabilities was calculated by the formula: [formula]

PC-3 = test: as above; format: cell-based; conditions: PC-3 human prostate cancer cells, culture time 72 h-216 h
Description: as §1

H1650 = test: as above; format: cell-based; conditions: culture time 72 h-216 h
Description: as §1

H520 = test: as above; format: cell-based; conditions: culture time 72 h-216 h
Description: as §1

HEK-293 = test: as above; format: cell-based; conditions: culture time 72 h-216 h
Description: as §1

HCC95 = test: as above; format: cell-based; conditions: HCC95 human lung cancer cells, culture time 72 h-216 h
Description: as §1

MDA-MB-436 = test: as above; format: cell-based; conditions: MDA-MB-436 human breast cancer cells, culture time 72 h-216 h
Description: as §1

HCC827 = test: as above; format: cell-based; conditions: HCC827 human lung adenocarcinoma cells, culture time 72 h-216 h
Description: as §1

CAMA-1 = test: as above; format: cell-based; conditions: CAMA-1 human breast cancer cells, culture time 72 h-216 h
Description: as §1

Cal-120 = test: as above; format: cell-based; conditions: Cal-120 human breast cancer cells, culture time 72 h-216 h
Description: as §1

H1975 = test: as above; format: cell-based; conditions: culture time 72 h-216 h
Description: as §1

T84 = test: as above; format: cell-based; conditions: T84 human colon cancer cells, culture time 72 h-216 h
Description: as §1

KYSE450 = test: as above; format: cell-based; conditions: culture time 72 h-216 h
Description: as §1

HCC4006 = test: as above; format: cell-based; conditions: HCC4006 human lung adenocarcinoma cells, culture time 72 h-216 h
Description: as §1

H2444 = test: as above; format: cell-based; conditions: culture time 72 h-216 h
Description: as §1

H3122 = test: as above; format: cell-based; conditions: culture time 72 h-216 h
Description: as §1

HCC1937 = test: as above; format: cell-based; conditions: HCC1937 human breast cancer cells, culture time 72 h-216 h
Description: as §1

HT29 = test: as above; format: cell-based; conditions: culture time 72 h-216 h
Description: as §1

H2228 = test: as above; format: cell-based; conditions: culture time 72 h-216 h
Description: as §1

MCF-7 = test: as above; format: cell-based; conditions: culture time 72 h-216 h
Description: as §1

Capan-1 = test: as above; format: cell-based; conditions: Capan-1 human pancreatic cancer cells, culture time 72 h-216 h
Description: as §1

A549 = test: as above; format: cell-based; conditions: A549 human non-small cell lung adenocarcinoma cells, culture time 72 h-216 h
Description: as §1

TNBC patients = conditions: CALGB 40603 study, combined carboplatin, cited from earlier work
[1] = NCI-H1299, H1299 human non-small cell lung cancer cells
[2] = NCI-H1650, H1650 human lung cancer cells
[3] = NCI-H520, H520 human non-small cell lung squamous cell
[4] = HEK293, HEK-293 human embryonic kidney cells
[5] = NCI-H1975, H1975 human non-small cell lung adenocarcinoma cells
[6] = KYSE-450, KYSE450 human esophageal cancer cells
[7] = NCI-H2444, H2444 human non-small cell lung cancer cells
[8] = NCI-H3122, H3122 human non-small cell lung cancer cells
[9] = HT-29, HT29 human colon cancer cells
[10] = NCI-H2228, H2228 human non-small cell lung adenocarcinoma cells
[11] = MCF7, MCF-7 human breast cancer cells

Molecule: N.N.[Cl][Pt][Cl] [Cisplatin, cis-diaminedichloroplatinum(II)]
- IC50 (H1299; H1299 human non-small cell lung cancer cells): 2000 nM
- IC50 (PC-3): 799 nM
- IC50 (H1650; H1650 human lung cancer cells): 1060 nM
- IC50 (H520; H520 human non-small cell lung squamous cell): 464 nM
- IC50 (HEK-293; HEK-293 human embryonic kidney cells): 465 nM
- IC50 (HCC95): 878 nM
- IC50 (MDA-MB-436): 139 nM
- IC50 (HCC827): 626 nM
- IC50 (CAMA-1): 1400 nM
- IC50 (Cal-120): 4440 nM
- IC50 (H1975; H1975 human non-small cell lung adenocarcinoma cells): 7000 nM
- IC50 (T84): 433 nM
- IC50 (KYSE450; KYSE450 human esophageal cancer cells): 1460 nM
- IC50 (HCC4006): 1000 nM
- IC50 (H2444; H2444 human non-small cell lung cancer cells): 1140 nM
- IC50 (H3122; H3122 human non-small cell lung cancer cells): 1540 nM
- IC50 (HCC1937): 259 nM
- IC50 (HT29; HT29 human colon cancer cells): 692 nM
- IC50 (H2228; H2228 human non-small cell lung adenocarcinoma cells): 514 nM
- IC50 (MCF-7; MCF-7 human breast cancer cells): 894 nM
- IC50 (Capan-1): 214 nM
- IC50 (A549): 1000 nM

Molecule: O=C(c1cc(Cc2n[nH]c(=O)c3ccccc23)ccc1F)N1CCN(C(=O)C2CC2)CC1 [Olaparib]
- IC50 (H1299; [1]): 40000 nM
- IC50 (PC-3): 6220 nM
- IC50 (H1650; [2]): 75000 nM
- IC50 (H520; [3]): 2190 nM
- IC50 (HEK-293; [4]): 5880 nM
- IC50 (HCC95): 25300 nM
- IC50 (MDA-MB-436): < 2500 nM
- IC50 (HCC827): 6080 nM
- IC50 (CAMA-1): 8330 nM
- IC50 (Cal-120): 160000 nM
- IC50 (H1975; [5]): 80000 nM
- IC50 (T84): 5850 nM
- IC50 (KYSE450; [6]): 130000 nM
- IC50 (HCC4006): 9140 nM
- IC50 (H2444; [7]): 7670 nM
- IC50 (H3122; [8]): 16900 nM
- IC50 (HCC1937): 10000 nM
- IC50 (HT29; [9]): 7660 nM
- IC50 (H2228; [10]): 10800 nM
- IC50 (MCF-7; [11]): 3510 nM
- IC50 (Capan-1): 2570 nM
- IC50 (A549): 80000 nM

Molecule: CC(=O)O[C@H]1C(=O)[C@@]2(C)[C@H]([C@H](OC(=O)c3ccccc3)[C@]3(O)C[C@H](OC(=O)[C@H](O)[C@@H](NC(=O)c4ccccc4)c4ccccc4)C(C)=C1C3(C)C)[C@]1(OC(C)=O)CO[C@@H]1C[C@@H]2O [Paclitaxel]
- IC50 (H1299; [1]): 22.7 nM
- IC50 (PC-3): 4.27 nM
- IC50 (H1650; [2]): 6.61 nM
- IC50 (H520; [3]): 6.99 nM
- IC50 (HEK-293; [4]): 10.3 nM
- IC50 (HCC95): 6.13 nM
- IC50 (MDA-MB-436): 9.67 nM
- IC50 (HCC827): 9.26 nM
- IC50 (CAMA-1): 4.16 nM
- IC50 (Cal-120): 43.5 nM
- IC50 (H1975; [5]): 7 nM
- IC50 (T84): 32.1 nM
- IC50 (KYSE450; [6]): 11.5 nM
- IC50 (HCC4006): 3.85 nM
- IC50 (H2444; [7]): 7.1 nM
- IC50 (H3122; [8]): 8.48 nM
- IC50 (HCC1937): 9 nM
- IC50 (HT29; [9]): 3.05 nM
- IC50 (H2228; [10]): 5.2 nM
- IC50 (MCF-7; [11]): 4.84 nM
- IC50 (Capan-1): 6.99 nM
- IC50 (A549): 5.86 nM

Molecule: CC[C@@]1(O)C(=O)OCc2c1cc1n(c2=O)Cc2cc3c(CN(C)C)c(O)ccc3nc2-1 [Topotecan, Topotecan hydrochloride hydrate]
- IC50 (H1299; [1]): 28.7 nM
- IC50 (PC-3): 20.1 nM
- IC50 (H1650; [2]): 125 nM
- IC50 (H520; [3]): 9.17 nM
- IC50 (HEK-293; [4]): 18 nM
- IC50 (HCC95): 46.7 nM
- IC50 (MDA-MB-436): 4.21 nM
- IC50 (HCC827): 12.6 nM
- IC50 (CAMA-1): 0.907 nM
- IC50 (Cal-120): 518 nM
- IC50 (H1975; [5]): 250 nM
- IC50 (T84): 7.56 nM
- IC50 (KYSE450; [6]): 26.3 nM
- IC50 (HCC4006): 23.1 nM
- IC50 (H2444; [7]): 8.09 nM
- IC50 (H3122; [8]): 20 nM
- IC50 (HCC1937): 35.2 nM
- IC50 (HT29; [9]): 15.6 nM
- IC50 (H2228; [10]): 24.6 nM
- IC50 (MCF-7; [11]): 2.05 nM
- IC50 (Capan-1): 15.8 nM
- IC50 (A549): 250 nM

Molecule: carboplatin
- breast/axillary pCR rates (TNBC patients; vs 41% without, P=0.0029): 54%
- breast pCR rates (TNBC patients; vs 44% without, P=0.0018): 60%
